Reference: patent US5574026A, “Methods for inhibiting angiogenesis proliferation of endothelial or tumor cells and tumor growth” (American Cyanamid Company, priority 1994, dated 1996)
Converted amounts (≈) assume the structure as drawn. Counter-ions that a name gives are not always drawn.

Legend:
Assay type in all cases: cell-based
[1] = test system: SW620; test: Antiproliferative activity in human tumor cell lines, PROTOCOL 1 and PROTOCOL 2; conditions: SW-620, colon tumor cell line SW620, 48 hours, read-out: IC50
Description: (§1) The antiproliferative activity of the compounds of Formula I in an Adult Bovine Aortic Endothelial (ABAE) cell line and in Human Tumor cells lines is evaluated in three similar assays that measure growth inhibition. The assays are identified as follows:
(§2) PROTOCOLS 1, 2, and 3 are described in greater detail hereinbelow. In general, according to PROTOCOLS 1 and 2, the target ABAE and/or Human Tumor cells are exposed to the compounds of Formula I for 48 hours. PROTOCOL 3 exposes ABAE cells to the compounds for 4 days. A detailed description of the Protocols is as follows:
(§3) Antiproliferative Activity in Human Tumor Cell Lines
(§4) The antiproliferative activity of the compounds of Formula I of the present invention is evaluated in a panel comprised of human tumor cell lines. The human tumor cell lines are from
(§5) 2) Colon tumors: MIP, CACO2, and SW620.
(§6) All cell lines are maintained in log phase in RPMI 1640 media, supplemented with 5% fetal calf serum, penicillin/streptomycin and 2 mM L-glutamine. Cultures are renewed after 20 passages with cells from a fresh stock of batch-frozen early passage cells. Cell lines are routinely checked for mycoplasma contamination (Genprobe). In a laminar flow hood, cells (1-5×10^4) are plated into 96-well microtiter plates in a volume of 0.1 ml/well with a bulk microtiter dispenser (Denley). […] At this concentration, dimethylsulfoxide has no effect on cell growth. Compounds are added using a Tomtec dispenser which simultaneously dispenses from one 96-well plate, containing the drug dilutions, to the plates containing the cells. After two days of continuous drug exposure, 50% cold trichloroacetic acid (TCA) is added to 10% final concentration to fix the cells, and after 60 minutes at 4° C., the TCA is aspirated and the plates are washed 5 times with deionized water using a microtiter plate washer. The number of cells on the plate are quantitated using a protein dye-binding assay (Monks et al., 1991). A 0.4% solution of the dye, sulforhodamine B, in […] is added to the plates, and the plates are washed 5 times with 1% glacial acetic acid using the automatic plate washed. The bound stain is solubilized with 0.1 ml of 10 mMTris base. The optical densities are read from an automatic spectrophotometric plate reader (Dynatech) directly to a main frame computer (VAX 8600).
(§7) Positive controls, that include standard chemotherapeutic drugs (i.e., adriamycin, cisplatin, etc.), are included in every experiment.
(§8) Background optical density measurements (complete media--cells, and complete media+drug-cells) are automatically subtracted from the appropriate control and test wells. Mean values and standard errors are determined from duplicate wells. A measure is also made of the optical density at time when the drugs are added. The number of cells after treatment (P), as % of control, is calculated for every concentration of drug, as follows: [formula] wherein: T is optical density measurement for treated cells after 48 hours;
(§9) C is optical density measurement for untreated cells after 48 hours;
(§10) Co is optical density measurement for cells at the time of drug addition.
(§11) IC50 of Growth inhibition is calculated from the sets of P values using the RS-1 data package (BBN Software).
(§12) Antiproliferative Activity in Human Tumor and Adult Bovine Aortic Endothelial Cell Lines (ABAE)
(§13) The antiproliferative activity of the compounds of Formula I is evaluated in a panel comprised of human tumor cell lines as listed in Protocol 1 as well as an adult bovine aortic endothelial cell line (ABAE). This assay is a modification of PROTOCOL 1. The modifications include:
(§14) 1) each concentration for each compound is tested in a single well;
(§15) 2) compounds are tested at 20, 4, 0.8, 0.16 microgram/ml and additionally in some experiments at 100 and 0.32 microgram/ml;
(§16) 3) samples are pipetted into a 96-well plate for each of the cell lines by a Beckman Biomek 1000 SL robot; […]

[2] = test system: Human Tumor cell lines; test: Antiproliferative activity in panel of human tumor cell lines (average / panel as a whole), PROTOCOL 1 and PROTOCOL 2; conditions: for IC50: Homo sapiens, average over the tumor cell lines tested
Description: as §1, §2, §3, §4, §5, §6, §7, §8, §9, §10, §11, §12, §13, §14, §15, §16

[3] = test system: Adult Bovine Aortic Endothelial (ABAE) cell line; test: Antiproliferative activity in Adult Bovine Aortic Endothelial (ABAE) cell line, PROTOCOL 2 (48 h, sulforhodamine B); conditions: Bos taurus, ABAE cells
Description: The antiproliferative activity of the compounds of Formula I in an Adult Bovine Aortic Endothelial (ABAE) cell line and in Human Tumor cells lines is evaluated in three similar assays that measure growth inhibition. The assays are identified as follows: PROTOCOLS 1, 2, and 3 are described in greater detail hereinbelow. In general, according to PROTOCOLS 1 and 2, the target ABAE and/or Human Tumor cells are exposed to the compounds of Formula I for 48 hours. PROTOCOL 3 exposes ABAE cells to the compounds for 4 days. A detailed description of the Protocols is as follows: All cell lines are maintained in log phase in RPMI 1640 media, supplemented with 5% fetal calf serum, penicillin/streptomycin and 2 mM L-glutamine. Cultures are renewed after 20 passages with cells from a fresh stock of batch-frozen early passage cells. Cell lines are routinely checked for mycoplasma contamination (Genprobe). In a laminar flow hood, cells (1-5×10^4) are plated into 96-well microtiter plates in a volume of 0.1 ml/well with a bulk microtiter dispenser (Denley). […] At this concentration, dimethylsulfoxide has no effect on cell growth. Compounds are added using a Tomtec dispenser which simultaneously dispenses from one 96-well plate, containing the drug dilutions, to the plates containing the cells. […] The number of cells on the plate are quantitated using a protein dye-binding assay (Monks et al., 1991). […] The optical densities are read from an automatic spectrophotometric plate reader (Dynatech) directly to a main frame computer (VAX 8600). PROTOCOL 2 Antiproliferative Activity in Human Tumor and Adult Bovine Aortic Endothelial Cell Lines (ABAE) The antiproliferative activity of the compounds of Formula I is evaluated in a panel comprised of human tumor cell lines as listed in Protocol 1 as well as an adult bovine aortic endothelial cell line (ABAE). […] Table 1 presents the results depicting the antiproliferative activity of the compounds of Formula I against an ABAE cell line, as evaluated by PROTOCOL 2 and PROTOCOL 3. […]

## CN(C)[C@@H]1C(O)=C(C(N)=O)C(=O)[C@@]2(O)C(O)=C3C(=O)c4c(O)ccc(Br)c4CC3CC12 (stereo partly drawn) [Example 8, [4S-(4α,12aα)]-7-Bromo-4-(dimethylamino)-1,4,4a,5,5a,-6,11,12a-octahydro-3,10,12,12a-tetrahydroxy-1,11-dioxo-2-naphthacenecarboxamide sulfate]
[1]
  IC50: 1.4 µg/mL
[2]; FIG. 2, 6 human tumor cell lines, in words
  inhibition of cell growth at the highest concentrations: no 100% inhibition of cell growth
[2]
  IC50: 1.3 µg/mL
[2]; even at the highest concentration
  dead floating cells: not observed
[3]
  IC50: 2.4 µg/mL

## CN(C)[C@@H]1C(O)=C(C(N)=O)C(=O)[C@@]2(O)C(O)=C3C(=O)c4c(O)ccc(I)c4CC3CC12 (stereo partly drawn) [Example 10, [4S-(4α,12aα)]-4-(Dimethylamino)-4,4,4a,5,5a,6,11,12a-octahydro-3,10,12,12a-tetrahydroxy-7-iodo-1,11-dioxo-2-naphthacenecarboxamide]
[1]
  IC50: 1.2 µg/mL (≈ 2.22 µM)
[2]
  IC50: 1.7 µg/mL (≈ 3.15 µM)
[3]
  IC50: 5 µg/mL (≈ 9.25 µM)

## CN(C)c1ccc(O)c2c1C[C@H]1C[C@H]3[C@H](N(C)C)C(O)=C(C(N)=O)C(=O)[C@@]3(O)C(O)=C1C2=O [Minocycline, reference compound]
[3]
  IC50: > 20 µg/mL
